Counter-ions that a name gives are not always drawn. One block for each compound: values may come before it.
Tests used:
[1] = Volatility of perfuming compounds (Tables 4 to 10), with top/middle/bottom note type; type: physicochemical
Procedure, shortened: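 Note type follows from air volatility (μg/l): bottom 49–0.1, middle 99–50, top 70,000–100. Compounds are listed within watery, green, fruity, citrus, sweet, gourmand and woody families.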

[2] = Odor threshold and odor value of perfuming compounds (Tables 4 to 10)
[3] = Table 6, perfuming compounds having a fruity note
[4] = Table 6, perfuming compounds having a fruity note, note type by volatility
[5] = Table 7, citrus note, top, middle or bottom note
[6] = note type (Top/Middle/Bottom) by volatility, perfuming compounds having a green note
[7] = perfuming compounds having a green note
[8] = Table 7, citrus note, equals volatility divided by odor threshold
[9] = Table 10, perfuming compounds having a woody note, note type by volatility
[10] = Table 8, perfuming compounds having a sweet note
[11] = Table 8, perfuming compounds having a sweet note, note type by volatility
[12] = Table 4, watery note, top, middle or bottom note
[13] = Table 4, watery note, equals volatility divided by odor threshold
[14] = Table 9, perfuming compounds having a gourmand note, note type by volatility

Volatility [1, 3]: 587.76 μg/l air
Volatility (μg/l air) ([1]; Table 7, citrus note): 587.76 μg/l air
Type [1, 5]: Top
Type [1, 6]: Top
Volatility (μg/l air) [1, 7]: 587.76 μg/l air
SMILES: COCC(C)Cc1ccccc1 (racemic) [(+−)-(3-methoxy-2-methylpropyl)benzene]
Type [1, 4]: TOP (perfuming compounds having a volatility ranging from 70,000 to 100 μg/l in air are referred to as “top notes”)
Odor Threshold (μg/l air) ([2]; Table 7, citrus note): 1.51E−02 μg/l air
Odor Value [2, 8]: 3.89E+04
Odor Threshold (μg/l air) [2, 7]: 1.51E−02 μg/l air

Volatility [1, 3]: 64.15 μg/l air
Type [1, 4]: Middle
Type [1, 6]: Middle
Volatility (μg/l air) [1, 7]: 64.15 μg/l air
SMILES: CC/C=C(\C)C(O)CCCCC (racemic) [(+−)-(E)-4-METHYL-3-DECEN-5-OL]
Odor Threshold [2, 3]: 6.78E−04 μg/l air
Odor Value [2, 3]: 9.46E+04
Odor Threshold (μg/l air) [2, 7]: 6.78E−04 μg/l air

Type [1, 9]: Top
Volatility ([1]; Table 10, woody note): 172.78 μg/l air
SMILES: CC1=CCC(C(C)(C)O)CC1 (racemic) [(+−)-ALPHA-TERPINEOL]
Odor Threshold ([2]; Table 10, woody note): 1.03E−01 μg/l air

Volatility [1, 10]: 2276.17 μg/l air
Type [1, 11]: Top
Type [1, 6]: Top
Volatility (μg/l air) [1, 7]: 2276.17 μg/l air
SMILES: CCOC(=O)C(=O)C(C)CC (racemic) [(+−)-ETHYL 3-METHYL-2-OXOPENTANOATE]
Odor Threshold [2, 10]: 5.06E−04 μg/l air
Odor Value [2, 10]: 4.50E+06
Odor Threshold (μg/l air) [2, 7]: 5.06E−04 μg/l air

Volatility [1, 3]: 51367.63 μg/l air
Volatility (μg/l air) ([1]; Table 7, citrus note): 51367.63 μg/l air
Type [1, 5]: Top
SMILES: CCC(C)C(=O)OC(C)C (racemic) [(+−)-ISOPROPYL 2-METHYLBUTANOATE]
Type [1, 4]: TOP (perfuming compounds having a volatility ranging from 70,000 to 100 μg/l in air are referred to as “top notes”)
Odor Threshold (μg/l air) ([2]; Table 7, citrus note): 8.42E−03 μg/l air
Odor Value [2, 8]: 6.10E+06

Volatility (μg/l air) ([1]; Table 4, watery note): 79.79 μg/l air
SMILES: CC(C)CC1CC(C)(O)CCO1 (racemic) [(+−)-TETRAHYDRO-2-ISOBUTYL-4-METHYL-4(2H)-PYRANOL]
Type [1, 12]: middle (perfuming compounds having a volatility ranging from 99 to 50 μg/l in air are referred to as “middle notes”)
Odor Threshold (μg/l air) ([2]; Table 4, watery note): 1.35E−02 μg/l air
Odor Value [2, 13]: 5.91E+03

Volatility [1, 3]: 21.05 μg/l air
Type [1, 4]: Bottom
Volatility [1, 10]: 21.05 μg/l air
Type [1, 11]: Bottom
Volatility ([1]; Table 9, gourmand note): 21.05 μg/l air
Type [1, 14]: Bottom
SMILES: CCCCC[C@@H]1OC(=O)C[C@H]1C (racemic) [(+−)-TRANS-3-METHYL-4-NONANOLIDE]
Odor Threshold [2, 3]: 8.33E−04 μg/l air
Odor Value [2, 3]: 2.53E+04
Odor Threshold [2, 10]: 8.33E−04 μg/l air
Odor Value [2, 10]: 2.53E+04
Odor Threshold ([2]; Table 9, gourmand note): 8.33E−04 μg/l air

Volatility [1, 3]: 83769.16 μg/l air
Type [1, 6]: Top
Volatility (μg/l air) [1, 7]: 83769.16 μg/l air
SMILES: CCOC(=O)C(C)CC (racemic) [(+−)-ethyl 2-methylbutanoate]
Type [1, 4]: TOP (perfuming compounds having a volatility ranging from 70,000 to 100 μg/l in air are referred to as “top notes”)
Odor Threshold (μg/l air) [2, 7]: 1.26E−04 μg/l air

Volatility [1, 3]: 6677.64 μg/l air
Type [1, 9]: Top
Volatility ([1]; Table 10, woody note): 6677.64 μg/l air
SMILES: CCCCC(CC)C(=O)OC (racemic) [(+−)-methyl 2-ethylhexanoate]
Type [1, 4]: TOP (perfuming compounds having a volatility ranging from 70,000 to 100 μg/l in air are referred to as “top notes”)
Odor Threshold ([2]; Table 10, woody note): 1.74E−01 μg/l air

Volatility (μg/l air) ([1]; Table 7, citrus note): 2.12 μg/l air
Type [1, 5]: Bottom
SMILES: CCCCC[C@H]1C(=O)CC[C@@H]1CC(=O)OC (racemic) [methyl 2-((1RS,2RS)-3-oxo-2-pentylcyclopentyl)acetate]
Odor Threshold (μg/l air) ([2]; Table 7, citrus note): 5.77E−04 μg/l air
Odor Value [2, 8]: 3.67E+03

Type [1, 9]: Bottom
Volatility ([1]; Table 10, woody note): 4.86 μg/l air
SMILES: CC1(C)C2C[C@H]3CCC(=O)C=C3[C@@H]1C2 (single isomer, unassigned; (+))
Odor Threshold ([2]; Table 10, woody note): 2.86E−05 μg/l air

Volatility [1, 3]: 4.39 μg/l air
Type [1, 4]: Bottom
SMILES: CCC(=O)OCC(C)(C)OC(C)C1CCCC(C)(C)C1 (single isomer, unassigned; (+))
Odor Threshold [2, 3]: 3.69E−04 μg/l air
Odor Value [2, 3]: 1.19E+04

Volatility [1, 3]: 34.65 μg/l air
Type [1, 4]: Bottom
Volatility [1, 10]: 34.65 μg/l air
Type [1, 11]: Bottom
Volatility ([1]; Table 9, gourmand note): 34.65 μg/l air
Type [1, 14]: Bottom
SMILES: CCCC(=O)OC(C)(C)Cc1ccccc1 [1,1-DIMETHYL-2-PHENYLETHYL BUTANOATE]
Odor Threshold [2, 3]: 2.68E−02 μg/l air
Odor Value [2, 3]: 1.29E+03
Odor Threshold [2, 10]: 2.68E−02 μg/l air
Odor Value [2, 10]: 1.29E+03
Odor Threshold ([2]; Table 9, gourmand note): 2.68E−02 μg/l air

Volatility [1, 10]: 0.46 μg/l air
Type [1, 11]: Bottom
SMILES: O=C1CCCCCCCCCCC(=O)OCCO1 [1,4-dioxacyclohexadecane-5,16-dione]
Odor Threshold [2, 10]: 7.05E−04 μg/l air
Odor Value [2, 10]: 6.55E+02

SMILES: CC(=O)OC(C)CCC=C(C)CCC=C(C)C (stereo not drawn) [1,5,9-TRIMETHYL-4,8-DECADIENYL ACETATE]
Volatility (μg/l air) ([1]; Table 4, watery note): 14.74 μg/l air
Type [1, 12]: bottom (perfuming compounds having a volatility ranging from 49 to 0.1 μg/l in air are referred to as “bottom notes”)
Volatility [1, 3]: 14.74 μg/l air
Type [1, 4]: Bottom
Odor Threshold (μg/l air) ([2]; Table 4, watery note): 3.28E−04 μg/l air
Odor Value [2, 13]: 4.49E+04
Odor Threshold [2, 3]: 3.28E−04 μg/l air
Odor Value [2, 3]: 4.49E+04

SMILES: CC(OC=O)C1CCCC(C)(C)C1 (stereo not drawn) [1-(3,3-DIMETHYL-1-CYCLOHEXYL)ETHYL FORMATE]
Volatility (μg/l air) ([1]; Table 7, citrus note): 1129.46 μg/l air
Type [1, 5]: Top
Odor Threshold (μg/l air) ([2]; Table 7, citrus note): 2.05E−01 μg/l air
Odor Value [2, 8]: 5.50E+03

Type [1, 6]: Middle
Volatility (μg/l air) [1, 7]: 50.21 μg/l air
SMILES: COc1ccc(C(C)=O)cc1 [1-(4-METHOXYPHENYL)-1-ETHANONE″]
Odor Threshold (μg/l air) [2, 7]: 1.41E−04 μg/l air

Volatility [1, 3]: 38.43 μg/l air
Type [1, 4]: Bottom
Type [1, 6]: Bottom
Volatility (μg/l air) [1, 7]: 38.43 μg/l air
SMILES: C=CCCC(=O)C1=CCCC(C)(C)C1 [1-(5,5-dimethyl-1-cyclohexen-1-yl)-4-penten-1-one]
Odor Threshold [2, 3]: 1.64E−06 μg/l air
Odor Value [2, 3]: 2.34E+07
Odor Threshold (μg/l air) [2, 7]: 1.64E−06 μg/l air

Volatility [1, 10]: 17700.00 μg/l air
Type [1, 11]: Top
Volatility ([1]; Table 9, gourmand note): 17700.00 μg/l air
Type [1, 14]: Top
Type [1, 9]: Top
Volatility ([1]; Table 10, woody note): 17700.00 μg/l air
Type [1, 6]: Top
Volatility (μg/l air) [1, 7]: 17700.00 μg/l air
SMILES: CCCCO [1-BUTANOL]
Odor Threshold [2, 10]: 8.70E−02 μg/l air
Odor Value [2, 10]: 2.03E+05
Odor Threshold ([2]; Table 9, gourmand note): 8.70E−02 μg/l air
Odor Threshold ([2]; Table 10, woody note): 8.70E−02 μg/l air
Odor Threshold (μg/l air) [2, 7]: 8.70E−02 μg/l air

Volatility [1, 3]: 5265.61 μg/l air
Type [1, 6]: Top
Volatility (μg/l air) [1, 7]: 5265.61 μg/l air
SMILES: CC(=O)OC(CC(C)C)CC(C)C [1-ISOBUTYL-3-METHYLBUTYL ACETATE]
Type [1, 4]: TOP (perfuming compounds having a volatility ranging from 70,000 to 100 μg/l in air are referred to as “top notes”)
Odor Threshold (μg/l air) [2, 7]: 1.62E+00 μg/l air

Type [1, 6]: Top
Volatility (μg/l air) [1, 7]: 2070.00 μg/l air
SMILES: CCCCCCO [1-hexanol]
Odor Threshold (μg/l air) [2, 7]: 1.17E−01 μg/l air

Source: patent US20240301319A1, “PERFUMING COMPOSITIONS” (FIRMNICH SA, priority 2017, published 2024)
